Target: human Galectin-3 (Gal-3); His-Galectin-3 (Homo sapiens, UniProt P17931)
Experiment: competitive enzyme-linked lectin assay
Format: binding
Settings: His-Galectin-3 vs S0G2-BSA coated plate, PBS, r.t.

Chain of human Galectin-3 (Gal-3); His-Galectin-3 (P17931 2-250): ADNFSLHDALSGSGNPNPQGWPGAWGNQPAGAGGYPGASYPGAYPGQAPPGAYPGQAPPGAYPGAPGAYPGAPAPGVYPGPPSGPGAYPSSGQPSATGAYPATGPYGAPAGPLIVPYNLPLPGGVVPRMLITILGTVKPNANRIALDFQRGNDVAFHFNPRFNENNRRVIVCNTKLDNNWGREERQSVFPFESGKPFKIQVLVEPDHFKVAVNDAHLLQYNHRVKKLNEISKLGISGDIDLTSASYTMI

CC(=O)N[C@@H]1[C@@H](O)[C@H](O[C@@H]2O[C@H](CO)[C@@H](O[C@@H]3O[C@H](CO[C@H]4O[C@H](CO)[C@@H](O)[C@H](O)[C@@H]4O[C@@H]4O[C@H](CO)[C@@H](O[C@@H]5O[C@H](CO)[C@H](O)[C@H](O)[C@H]5O)[C@H](O)[C@H]4NC(C)=O)[C@@H](O)[C@H](O[C@H]4O[C@H](CO)[C@@H](O)[C@H](O)[C@@H]4O[C@@H]4O[C@H](CO)[C@@H](O[C@@H]5O[C@H](CO)[C@H](O)[C@H](O)[C@H]5O)[C@H](O)[C@H]4NC(C)=O)[C@@H]3O)[C@H](O)[C@H]2NC(C)=O)[C@@H](CO)O[C@H]1NC(=O)C[C@H](N)C(=O)O [compound 1, S0G2-Asn] showed an IC50 of 7.8 µM.

— paper PMC10349922 (Bioconjugate chemistry, 2023)
